Tests used:
poliovirus polymerase = poliovirus polymerase (Poliovirus type 1, UniProt P03300)
rhinovirus polymerase = rhinovirus polymerase (Human rhinovirus 14, UniProt P03303); type: biochemical
[1] = molecular target: T1, pJG-poliovirus 3D prey fusion (pJGPolio3D) (poliovirus Mahoney type 1, UniProt P03300 1749-2209); assay: yeast two-hybrid, colour on X-gal plates (- white); bait in row, prey in column
T1 sequence: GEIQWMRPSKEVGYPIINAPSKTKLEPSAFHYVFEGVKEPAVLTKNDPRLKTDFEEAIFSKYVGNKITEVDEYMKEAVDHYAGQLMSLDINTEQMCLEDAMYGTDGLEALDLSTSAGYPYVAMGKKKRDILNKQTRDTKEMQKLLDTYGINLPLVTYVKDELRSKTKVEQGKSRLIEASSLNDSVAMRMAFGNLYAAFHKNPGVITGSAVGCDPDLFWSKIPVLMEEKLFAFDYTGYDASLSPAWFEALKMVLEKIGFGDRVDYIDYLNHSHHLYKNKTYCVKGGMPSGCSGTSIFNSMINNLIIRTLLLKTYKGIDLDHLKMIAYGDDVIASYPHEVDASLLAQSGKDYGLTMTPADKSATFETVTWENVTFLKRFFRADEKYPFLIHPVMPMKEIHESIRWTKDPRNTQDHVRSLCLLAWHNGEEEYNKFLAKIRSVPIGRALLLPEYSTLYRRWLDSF

[2] = molecular target: poliovirus RNA-dependent RNA polymerase 3Dpol WT (Poliovirus type 1 (Mahoney), UniProt P03300 P03300:1749-2209); assay: filter; conditions: tags: none stated, expressed in E. coli BL21(DE3) pLysS, N-terminal Met removed; label: 32P (alpha-32P CTP, T7 transcript); 20 bp blunt self-complementary duplex

rhinovirus polymerase, sequence (P03303 1720-2179 limits assumed): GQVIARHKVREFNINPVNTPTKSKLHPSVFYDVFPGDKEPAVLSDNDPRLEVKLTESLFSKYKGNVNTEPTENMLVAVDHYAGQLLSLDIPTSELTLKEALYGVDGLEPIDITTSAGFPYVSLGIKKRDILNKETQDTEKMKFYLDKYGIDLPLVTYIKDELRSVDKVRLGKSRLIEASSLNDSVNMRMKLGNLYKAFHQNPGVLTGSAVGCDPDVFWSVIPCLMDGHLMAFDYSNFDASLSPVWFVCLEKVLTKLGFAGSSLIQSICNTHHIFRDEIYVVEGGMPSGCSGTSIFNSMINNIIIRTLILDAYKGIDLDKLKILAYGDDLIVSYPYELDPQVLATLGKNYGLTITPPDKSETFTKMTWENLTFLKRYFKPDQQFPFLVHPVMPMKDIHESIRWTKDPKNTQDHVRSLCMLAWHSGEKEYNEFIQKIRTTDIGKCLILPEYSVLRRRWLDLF

## [Cl-].[Cl-].[Zn+2] [ZnCl2]
Poliovirus polymerase
  effect on decrease in specific activity with decreasing polymerase concentration: nearly eliminates the decrease in specific activity

## KPHKCTFEGCRKSYSRSTNLRRHLNSH (SEQ ID NO:5) [Peptide 1]
Rhinovirus polymerase
  activity of the rhinovirus polymerase: inhibits

B1: Lex202 vector control (bait vector without a polymerase) (other)
chain: MKALTARQQEVFDLIRDHISQTGMPPTRAEIAQRLGFRSPNAAEEHLKALARKGVIEIVSGASRGIRLLQEEEEGLPLVGRVAAGEPLLAQQHIEGHYQVDPSLFKPNADFLLRVSGMSMKDIGIMDGDLLAVHKTQDVRNGQVVVARIDDEVTVKRLKKQGNKVELLPENSEFKPIVVDLRQQSFTIEGLAVGVIRNGDWL
[1]
  binding result: no binding

B2: 0.20 RNA (dsRNA)
RNA 1: GGCAGCUGCAUGCAGCUGCC
RNA 2: GGCAGCUGCAUGCAGCUGCC
[2]
  binding result: binds

Reference: patent US20020164348A1 (priority 2000, published 2002)
